Test results: ChEMBL document CHEMBL4387762, “Multicomponent synthesis of α-acylamino and α-acyloxy amide derivatives of desmycosin and their activity against gram-negative bacteria” (2019)
≈ marks a conversion by molar mass, not a printed value.

Legend:
Assay type in all cases: functional
Aliivibrio fischeri [1] = test: Antimicrobial activity against Aliivibrio fischeri DSM507 assessed as growth inhibition at 1 uM incubated for 24 hrs by luminescence based assay relative to control; conditions: DSM507, 24 h, read-out: GI
Aliivibrio fischeri [2] = test: Antimicrobial activity against Aliivibrio fischeri DSM507 assessed as growth inhibition at 0.1 uM incubated for 24 hrs by luminescence based assay relative to control; conditions: DSM507, 24 h, read-out: GI
Aliivibrio fischeri [3] = test: Antimicrobial activity against Aliivibrio fischeri DSM507 assessed as growth inhibition incubated for 24 hrs by luminescence based assay; conditions: DSM507, 24 h

Compound	inhibition of growth at 1 µM (Aliivibrio fischeri [1]) [%]	inhibition of growth at 0.1 µM (Aliivibrio fischeri [2]) [%]	MIC (Aliivibrio fischeri [3]) [µM]
CC[C@@H](C)CN(C(=O)c1ccccc1)C(C[C@H]1C[C@@H](C)C(=O)/C=C/C(C)=C/[C@H](CO[C@H]2O[C@@H](C)[C@H](O)[C@H](OC)[C@@H]2OC)[C@@H](CC)OC(=O)C[C@@H](O)[C@H](C)[C@H]1O[C@@H]1O[C@H](C)[C@@H](O)[C@H](N(C)C)[C@H]1O)C(=O)NC(C)(C)C (some centres undefined)	52	25	
CC[C@H]1OC(=O)C[C@@H](O)[C@H](C)[C@@H](O[C@@H]2O[C@H](C)[C@@H](O)[C@H](N(C)C)[C@H]2O)[C@@H](CC(C(=O)NC(C)(C)C)N(CCNC(=O)OC(C)(C)C)C(=O)c2ccccc2)C[C@@H](C)C(=O)/C=C/C(C)=C/[C@@H]1CO[C@H]1O[C@@H](C)[C@H](O)[C@H](OC)[C@@H]1OC (mixture of isomers)	56	34	
CC[C@H]1OC(=O)C[C@@H](O)[C@H](C)[C@@H](O[C@@H]2O[C@H](C)[C@@H](O)[C@H](N(C)C)[C@H]2O)[C@@H](CC(C(=O)NC(C)(C)C)N(C)C(=O)c2ccccc2)C[C@@H](C)C(=O)/C=C/C(C)=C/[C@@H]1CO[C@H]1O[C@@H](C)[C@H](O)[C@H](OC)[C@@H]1OC (single isomer, unassigned)			2 to 4 (≈ 1.98 to 3.96 µg/mL)
CC[C@H]1OC(=O)C[C@@H](O)[C@H](C)[C@@H](O[C@@H]2O[C@H](C)[C@@H](O)[C@H](N(C)C)[C@H]2O)[C@@H](CC(C(=O)NC2CCCCC2)N(C(=O)c2ccccc2)C(C)C)C[C@@H](C)C(=O)/C=C/C(C)=C/[C@@H]1CO[C@H]1O[C@@H](C)[C@H](O)[C@H](OC)[C@@H]1OC (mixture of isomers)	44	21	
CCCC(=O)N(C)C(C[C@H]1C[C@@H](C)C(=O)/C=C/C(C)=C/[C@H](CO[C@H]2O[C@@H](C)[C@H](O)[C@H](OC)[C@@H]2OC)[C@@H](CC)OC(=O)C[C@@H](O)[C@H](C)[C@H]1O[C@@H]1O[C@H](C)[C@@H](O)[C@H](N(C)C)[C@H]1O)C(=O)NC(C)(C)C (mixture of isomers)	73	26	
CC[C@H]1OC(=O)C[C@@H](O)[C@H](C)[C@@H](O[C@@H]2O[C@H](C)[C@@H](O)[C@H](N(C)C)[C@H]2O)[C@@H](CC=O)C[C@@H](C)C(=O)/C=C/C(C)=C/[C@@H]1CO[C@H]1O[C@@H](C)[C@H](O)[C@H](OC)[C@@H]1OC	84	57	2 to 4 (≈ 1.54 to 3.09 µg/mL)
CC[C@H]1OC(=O)C[C@@H](O)[C@H](C)[C@@H](O[C@@H]2O[C@H](C)[C@@H](O)[C@H](N(C)C)[C@H]2O)[C@@H](CC(OC(=O)c2ccccc2)C(=O)NC(C)(C)C)C[C@@H](C)C(=O)/C=C/C(C)=C/[C@@H]1CO[C@H]1O[C@@H](C)[C@H](O)[C@H](OC)[C@@H]1OC (mixture of isomers)	52	18	
CC[C@H]1OC(=O)C[C@@H](O)[C@H](C)[C@@H](O[C@@H]2O[C@H](C)[C@@H](O)[C@H](N(C)C)[C@H]2O)[C@@H](C[C@H](C(=O)NC(C)(C)C)N(C)C(C)=O)C[C@@H](C)C(=O)/C=C/C(C)=C/[C@@H]1CO[C@H]1O[C@@H](C)[C@H](O)[C@H](OC)[C@@H]1OC	64	12	
CC[C@H]1OC(=O)C[C@@H](O)[C@H](C)[C@@H](O[C@@H]2O[C@H](C)[C@@H](O)[C@H](N(C)C)[C@H]2O)[C@@H](CC(C(=O)NC(C)(C)C)N(CCCCN)C(=O)c2ccccc2)C[C@@H](C)C(=O)/C=C/C(C)=C/[C@@H]1CO[C@H]1O[C@@H](C)[C@H](O)[C@H](OC)[C@@H]1OC (mixture of isomers)	36	6	
CC[C@H]1OC(=O)C[C@@H](O)[C@H](C)[C@@H](O[C@@H]2O[C@H](C)[C@@H](O)[C@H](N(C)C)[C@H]2O)[C@@H](CC(C(=O)NC(C)(C)C)N(C(=O)c2ccccc2)c2ccccc2)C[C@@H](C)C(=O)/C=C/C(C)=C/[C@@H]1CO[C@H]1O[C@@H](C)[C@H](O)[C@H](OC)[C@@H]1OC (mixture of isomers)	36	22	
CC[C@H]1OC(=O)C[C@@H](O)[C@H](C)[C@@H](O[C@@H]2O[C@H](C)[C@@H](O)[C@H](N(C)C)[C@H]2O)[C@@H](CC(C(=O)NC(C)(C)C)N(CCCCN=[N+]=[N-])C(=O)c2ccccc2)C[C@@H](C)C(=O)/C=C/C(C)=C/[C@@H]1CO[C@H]1O[C@@H](C)[C@H](O)[C@H](OC)[C@@H]1OC (mixture of isomers)	64	46	
CCCCNC(=O)C(C[C@H]1C[C@@H](C)C(=O)/C=C/C(C)=C/[C@H](CO[C@H]2O[C@@H](C)[C@H](O)[C@H](OC)[C@@H]2OC)[C@@H](CC)OC(=O)C[C@@H](O)[C@H](C)[C@H]1O[C@@H]1O[C@H](C)[C@@H](O)[C@H](N(C)C)[C@H]1O)N(C)C(=O)CCC (mixture of isomers)	62	15	
CCCC(=O)OC(C[C@H]1C[C@@H](C)C(=O)/C=C/C(C)=C/[C@H](CO[C@H]2O[C@@H](C)[C@H](O)[C@H](OC)[C@@H]2OC)[C@@H](CC)OC(=O)C[C@@H](O)[C@H](C)[C@H]1O[C@@H]1O[C@H](C)[C@@H](O)[C@H](N(C)C)[C@H]1O)C(=O)NC(C)(C)C (some centres undefined)	90	58	
CC[C@H]1OC(=O)C[C@@H](O)[C@H](C)[C@@H](O[C@@H]2O[C@H](C)[C@@H](O)[C@H](N(C)C)[C@H]2O)[C@@H](CC(C(=O)NC(C)(C)C)N(C(=O)c2ccccc2)C(C)C)C[C@@H](C)C(=O)/C=C/C(C)=C/[C@@H]1CO[C@H]1O[C@@H](C)[C@H](O)[C@H](OC)[C@@H]1OC (mixture of isomers)	79	54	
CC[C@H]1OC(=O)C[C@@H](O)[C@H](C)[C@@H](O[C@@H]2O[C@H](C)[C@@H](O)[C@H](N(C)C)[C@H]2O)[C@@H](C[C@@H](C(=O)NC(C)(C)C)N(C)C(C)=O)C[C@@H](C)C(=O)/C=C/C(C)=C/[C@@H]1CO[C@H]1O[C@@H](C)[C@H](O)[C@H](OC)[C@@H]1OC	11	6	
CCCC(=O)N(C(C)C)C(C[C@H]1C[C@@H](C)C(=O)/C=C/C(C)=C/[C@H](CO[C@H]2O[C@@H](C)[C@H](O)[C@H](OC)[C@@H]2OC)[C@@H](CC)OC(=O)C[C@@H](O)[C@H](C)[C@H]1O[C@@H]1O[C@H](C)[C@@H](O)[C@H](N(C)C)[C@H]1O)C(=O)NC(C)(C)C (mixture of isomers)	83	43	
CCCCNC(=O)C(C[C@H]1C[C@@H](C)C(=O)/C=C/C(C)=C/[C@H](CO[C@H]2O[C@@H](C)[C@H](O)[C@H](OC)[C@@H]2OC)[C@@H](CC)OC(=O)C[C@@H](O)[C@H](C)[C@H]1O[C@@H]1O[C@H](C)[C@@H](O)[C@H](N(C)C)[C@H]1O)N(C(=O)c1ccccc1)C(C)C (mixture of isomers)	57	31	
CC[C@H]1OC(=O)C[C@@H](O)[C@H](C)[C@@H](O[C@@H]2O[C@H](C)[C@@H](O)[C@H](N(C)C)[C@H]2O)[C@@H](CC(C(=O)NC(C)(C)C)N(CCCNC(=O)OCc2ccccc2)C(=O)c2ccccc2)C[C@@H](C)C(=O)/C=C/C(C)=C/[C@@H]1CO[C@H]1O[C@@H](C)[C@H](O)[C@H](OC)[C@@H]1OC (mixture of isomers)	64	47	
CC[C@H]1OC(=O)C[C@@H](O)[C@H](C)[C@@H](O[C@@H]2O[C@H](C)[C@@H](O)[C@H](N(C)C)[C@H]2O)[C@@H](CC(C(=O)NC(C)(C)C)N(C)C(=O)c2ccccc2)C[C@@H](C)C(=O)/C=C/C(C)=C/[C@@H]1CO[C@H]1O[C@@H](C)[C@H](O)[C@H](OC)[C@@H]1OC (mixture of isomers)	99	69	
CCC(=O)N(C(C)C)C(C[C@H]1C[C@@H](C)C(=O)/C=C/C(C)=C/[C@H](CO[C@H]2O[C@@H](C)[C@H](O)[C@H](OC)[C@@H]2OC)[C@@H](CC)OC(=O)C[C@@H](O)[C@H](C)[C@H]1O[C@@H]1O[C@H](C)[C@@H](O)[C@H](N(C)C)[C@H]1O)C(=O)NC(C)(C)C (mixture of isomers)	71	38	
CC[C@H]1OC(=O)C[C@@H](O)[C@H](C)[C@@H](O[C@@H]2O[C@H](C)[C@@H](O)[C@H](N(C)C)[C@H]2O)[C@@H](CC(C(=O)NC(C)(C)C)N(CC)C(=O)c2ccccc2)C[C@@H](C)C(=O)/C=C/C(C)=C/[C@@H]1CO[C@H]1O[C@@H](C)[C@H](O)[C@H](OC)[C@@H]1OC (mixture of isomers)	20	11	
CCCN(C(=O)c1ccccc1)C(C[C@H]1C[C@@H](C)C(=O)/C=C/C(C)=C/[C@H](CO[C@H]2O[C@@H](C)[C@H](O)[C@H](OC)[C@@H]2OC)[C@@H](CC)OC(=O)C[C@@H](O)[C@H](C)[C@H]1O[C@@H]1O[C@H](C)[C@@H](O)[C@H](N(C)C)[C@H]1O)C(=O)NC(C)(C)C (mixture of isomers)	41	16	
